These results are taken from patent US20250228243A1, “METHODS AND COMPOSITIONS FOR PPO HERBICIDE TOLERANCE” (Monsanto Technology LLC, priority 2024, published 2025).

What all share (format): in vivo
Common to all, as to settings: 15 days after application, 2-4 leaf stage, 0.5% v/v Mero, scale 0-100 (percentage of leaf area damaged), average of 4 replicates

Experiment [1] relates to Soybean - Inbred, Conventional. As to the kind of experiment: Herbicide injury rating, greenhouse, conventional soybean. As to the method:
(§1) Seeds of the regenerated transgenic plants described above were sown in 12-cm tall plastic pots containing standard soil (14.7% sand, 19.9% clay, 65.4% silt, and 1.8% organic matter). Transgenic cotton and corn seed were sown at a density of one seed per pot, whereas soybean was sown at a density of three seeds per pot. Plants were grown in a greenhouse with 60% relative humidity in a light cycle of 13 hour day and 11 hour night. The temperature was kept at 23° C. during the day and 12° C. at night. Herbicide tolerance of transgenic soybean, inbred corn, hybrid corn, and cotton plants, to herbicidal formulations comprising any of A1 to A3 and A7 was measured by applying respective formulations to plants at the 2-4 leaf stage (corresponding to BBCH 12-14) at dose rates of 100 or 200 g ai/ha. Methylated rapeseed oil (Mero) is used as an adjuvant and added to the spray mix for each herbicide at 0.5% v/v. Plants were visually assessed for herbicide injury at the following time points: 8 days, 15 days, 22 days after application. Unsprayed transgenic plants were used for phenotypic comparison with unsprayed wild-type plants.

Experiment [2] concerns Soybean - Inbred, PPO-Transgenic. As to the kind of experiment: Herbicide tolerance evaluation, greenhouse, PPO-transgenic soybean expressing HemG PPO H_N90. How it is done: as §1, with “Plant transformation vectors were constructed for expressing a chloroplast transit peptide operably linked to the PPO H_[…] (SEQ ID NO:1) in transgenic soybean, inbred corn, hybrid corn, and cotton plants, and introduced into seed-derived explants of soybean, inbred and hybrid corn, and cotton, respectively, through Agrobacterium tumefaciens-mediated transformation using standard methods known in the art. The regenerated R0 plants were analyzed to select for events with a single copy insertion for advancement to R1 nursery for R1 seed production. Seeds” for “Seeds”

Experiment [3] has as its system Corn - Inbred, Conventional. As to the kind of experiment: Herbicide injury rating, greenhouse, conventional inbred corn. How it is done:
as §1

In experiment [4] the test system is Corn - Inbred, PPO-Transgenic. Description: Herbicide tolerance evaluation, greenhouse, PPO-transgenic inbred corn expressing HemG PPO H_N90. How it is done:
as §1, with “Plant transformation vectors were constructed for expressing a chloroplast transit peptide operably linked to the PPO H_[…] (SEQ ID NO:1) in transgenic soybean, inbred corn, hybrid corn, and cotton plants, and introduced into seed-derived explants of soybean, inbred and hybrid corn, and cotton, respectively, through Agrobacterium tumefaciens-mediated transformation using standard methods known in the art. The regenerated R0 plants were analyzed to select for events with a single copy insertion for advancement to R1 nursery for R1 seed production. Seeds” for “Seeds”

Experiment [5] has as its system Corn - Hybrid, Conventional. As to the kind of experiment: Herbicide injury rating, greenhouse, conventional hybrid corn. As to the method: as §1
Experiment [6] concerns Corn - Hybrid, PPO-Transgenic. As to the kind of experiment: Herbicide tolerance evaluation, greenhouse, PPO-transgenic hybrid corn expressing HemG PPO H_N90. As to the method:
as §1, with “Plant transformation vectors were constructed for expressing a chloroplast transit peptide operably linked to the PPO H_[…] (SEQ ID NO:1) in transgenic soybean, inbred corn, hybrid corn, and cotton plants, and introduced into seed-derived explants of soybean, inbred and hybrid corn, and cotton, respectively, through Agrobacterium tumefaciens-mediated transformation using standard methods known in the art. The regenerated R0 plants were analyzed to select for events with a single copy insertion for advancement to R1 nursery for R1 seed production. Seeds” for “Seeds”

Experiment [7] has as its system Cotton - Inbred, Conventional. Description: Herbicide injury rating, greenhouse, conventional cotton. As to the method:
as §1

Experiment [8] relates to Cotton - Inbred, PPO-Transgenic. As to the kind of experiment: Herbicide tolerance evaluation, greenhouse, PPO-transgenic cotton expressing HemG PPO H_N90. How it is done: as §1, with “Plant transformation vectors were constructed for expressing a chloroplast transit peptide operably linked to the PPO H_[…] (SEQ ID NO:1) in transgenic soybean, inbred corn, hybrid corn, and cotton plants, and introduced into seed-derived explants of soybean, inbred and hybrid corn, and cotton, respectively, through Agrobacterium tumefaciens-mediated transformation using standard methods known in the art. The regenerated R0 plants were analyzed to select for events with a single copy insertion for advancement to R1 nursery for R1 seed production. Seeds” for “Seeds”

Consider `CCOC(=O)C(C)OC(=O)C1(Oc2cc(-n3c(=O)cc(C(F)(F)F)n(C)c3=O)c(F)cc2Cl)CC1` (stereo not shown) [Compound A1, 1-ethoxy-1-oxopropan-2-yl 1-{2-chloro-4-fluoro-5-[3-methyl-2,6-dioxo-4-(trifluoromethyl)-3,6-dihydropyrimidin-1 (2H)-yl]phenoxy}cyclopropanecarboxylate], for which the “Injury rating, Soybean - Inbred Conventional” value in experiment [1] (100 g ai/ha) and in experiment [1] (200 g ai/ha) was 100 each time. In addition, the “Injury rating, Soybean - Inbred PPO-Transgenic” value in experiment [2] (100 g ai/ha) and in experiment [2] (200 g ai/ha) was 0 in each case. In addition, the “Injury rating, Corn - Inbred Conventional” value in experiment [3] (100 g ai/ha) and in experiment [3] (200 g ai/ha) was 100 each time. The “Injury rating, Corn - Inbred PPO-Transgenic” value in experiment [4] (100 g ai/ha) and in experiment [4] (200 g ai/ha) was 0 throughout. Further, the “Injury rating, Corn - Hybrid Conventional” value in experiment [5] (100 g ai/ha) and in experiment [5] (200 g ai/ha) was 100 in each case. The “Injury rating, Corn - Hybrid PPO-Transgenic” value in experiment [6] (100 g ai/ha) and in experiment [6] (200 g ai/ha) was 0 throughout. Also, the “Injury rating, Cotton - Inbred Conventional” value in experiment [7] (100 g ai/ha) and in experiment [7] (200 g ai/ha) was 100 in each case. Moreover, the “Injury rating, Cotton - Inbred PPO-Transgenic” value in experiment [8] (100 g ai/ha) and in experiment [8] (200 g ai/ha) was 0 each time.
For the compound `CC(OC(=O)C1(Oc2cc(-n3c(=O)cc(C(F)(F)F)n(C)c3=O)c(F)cc2Cl)CC1)C(=O)O` (stereo not shown) [Compound A2, 2-{[(1-{2-chloro-4-fluoro-5-[3-methyl-2,6-dioxo-4-(trifluoromethyl)-3,6-dihydropyrimidin-1 (2H)-yl]phenoxy}cyclopropyl)carbonyl]oxy}propanoic acid], the “Injury rating, Soybean - Inbred Conventional” value in experiment [1] (100 g ai/ha) and in experiment [1] (200 g ai/ha) was 100 each time. The “Injury rating, Soybean - Inbred PPO-Transgenic” value in experiment [2] (100 g ai/ha) and in experiment [2] (200 g ai/ha) was 0 in each case. Further, the “Injury rating, Corn - Inbred Conventional” value in experiment [3] (100 g ai/ha) and in experiment [3] (200 g ai/ha) was 100 in each case. Moreover, the “Injury rating, Corn - Inbred PPO-Transgenic” value in experiment [4] (100 g ai/ha) and in experiment [4] (200 g ai/ha) was 0 throughout. For the same compound, the “Injury rating, Corn - Hybrid Conventional” value in experiment [5] (100 g ai/ha) and in experiment [5] (200 g ai/ha) was 100 in each case. Also, the “Injury rating, Corn - Hybrid PPO-Transgenic” value in experiment [6] (100 g ai/ha) and in experiment [6] (200 g ai/ha) was 0 in each case. Further, the “Injury rating, Cotton - Inbred Conventional” value in experiment [7] (100 g ai/ha) and in experiment [7] (200 g ai/ha) was 100 throughout. The “Injury rating, Cotton - Inbred PPO-Transgenic” value in experiment [8] (100 g ai/ha) and in experiment [8] (200 g ai/ha) was 0 throughout.
As to `COC(=O)C(C)OC(=O)C1(Oc2cc(-n3c(=O)cc(C(F)(F)F)n(C)c3=O)c(F)cc2Cl)CC1` (stereo not shown) [Compound A3, 1-methoxy-1-oxopropan-2-yl 1-{2-chloro-4-fluoro-5-[3-methyl-2,6-dioxo-4-(trifluoromethyl)-3,6-dihydropyrimidin-1 (2H)-yl]phenoxy}cyclopropanecarboxylate], the “Injury rating, Soybean - Inbred Conventional” value in experiment [1] (100 g ai/ha) and in experiment [1] (200 g ai/ha) was 100 throughout. In addition, the “Injury rating, Soybean - Inbred PPO-Transgenic” value in experiment [2] (100 g ai/ha) and in experiment [2] (200 g ai/ha) was 0 in each case. Moreover, the “Injury rating, Corn - Inbred Conventional” value in experiment [3] (100 g ai/ha) and in experiment [3] (200 g ai/ha) was 100 each time. Besides, the “Injury rating, Corn - Inbred PPO-Transgenic” value in experiment [4] (100 g ai/ha) and in experiment [4] (200 g ai/ha) was 0 each time. The “Injury rating, Corn - Hybrid Conventional” value in experiment [5] (100 g ai/ha) and in experiment [5] (200 g ai/ha) was 100 throughout. Moreover, the “Injury rating, Corn - Hybrid PPO-Transgenic” value in experiment [6] (100 g ai/ha) and in experiment [6] (200 g ai/ha) was 0 in each case. Also, the “Injury rating, Cotton - Inbred Conventional” value in experiment [7] (100 g ai/ha) and in experiment [7] (200 g ai/ha) was 100 in each case. For the same compound, the “Injury rating, Cotton - Inbred PPO-Transgenic” value in experiment [8] (100 g ai/ha) and in experiment [8] (200 g ai/ha) was 0 in each case.
On to `C=CCOC(=O)C(C)OC(=O)C1(Oc2cc(-n3c(=O)cc(C(F)(F)F)n(C)c3=O)c(F)cc2Cl)CC1` (stereo not shown) [Compound A7, 1-(allyloxy)-1-oxopropan-2-yl 1-{2-chloro-4-fluoro-5-[3-methyl-2,6-dioxo-4-(trifluoromethyl)-3,6-dihydropyrimidin-1 (2H)-yl]phenoxy}cyclopropanecarboxylate.], for which the “Injury rating, Soybean - Inbred Conventional” value in experiment [1] (100 g ai/ha) and in experiment [1] (200 g ai/ha) was 100 throughout. The “Injury rating, Soybean - Inbred PPO-Transgenic” value in experiment [2] (100 g ai/ha) and in experiment [2] (200 g ai/ha) was 0 throughout. Also, the “Injury rating, Corn - Inbred Conventional” value in experiment [3] (100 g ai/ha) and in experiment [3] (200 g ai/ha) was 100 each time. The “Injury rating, Corn - Inbred PPO-Transgenic” value in experiment [4] (100 g ai/ha) and in experiment [4] (200 g ai/ha) was 0 in each case. The “Injury rating, Corn - Hybrid Conventional” value in experiment [5] (100 g ai/ha) and in experiment [5] (200 g ai/ha) was 100 in each case. The “Injury rating, Corn - Hybrid PPO-Transgenic” value in experiment [6] (100 g ai/ha) and in experiment [6] (200 g ai/ha) was 0 throughout. Also, the “Injury rating, Cotton - Inbred Conventional” value is given as 100− in experiment [7] (100 g ai/ha) and 100 in experiment [7] (200 g ai/ha). The “Injury rating, Cotton - Inbred PPO-Transgenic” value in experiment [8] (100 g ai/ha) and in experiment [8] (200 g ai/ha) was 0 each time.
